According to ChEMBL document CHEMBL1123447, “Biologically active derivatives of gossypol: synthesis and antimalarial activities of peri-acylated gossylic nitriles” (J Med Chem, 1986):

Tests used:
Plasmodium falciparum [1] = assay: Antimalarial activity against chloroquine-resistant Plasmodium falciparum FCB/NC1; format: functional, organism-based
Plasmodium falciparum [2] = assay: Antimalarial activity against chloroquine-sensitive Plasmodium falciparum CDC/I/HB-3; format: functional, organism-based
[3] = Compound was tested for the inhibition of LDH from a chloroquine-resistant strain (FCB/NC-1) of Plasmodium falciparum

Row | SMILES | IC50 (Plasmodium falciparum [1]) [µM] | IC50 (Plasmodium falciparum [2]) [µM] | Ki [3] [nM]
1 | CCCC(=O)Oc1c(-c2c(C)cc3c(C(C)C)c(O)c(O)c(C#N)c3c2OC(=O)CCC)c(C)cc2c(C(C)C)c(O)c(O)c(C#N)c12 | 26 | 21 | 620
2 | CCCCC(=O)Oc1c(-c2c(C)cc3c(C(C)C)c(O)c(O)c(C#N)c3c2OC(=O)CCCC)c(C)cc2c(C(C)C)c(O)c(O)c(C#N)c12 | 16 | 12 | 330
3 | Cc1cc2c(C(C)C)c(O)c(O)c(C=O)c2c(O)c1-c1c(C)cc2c(C(C)C)c(O)c(O)c(C=O)c2c1O [GOSSYPOL] | 13 | 7 | 
4 | CC(=O)Oc1c(-c2c(C)cc3c(C(C)C)c(O)c(O)c(C#N)c3c2OC(C)=O)c(C)cc2c(C(C)C)c(O)c(O)c(C#N)c12 | 76 | 36 | 830
5 | CCC(=O)Oc1c(-c2c(C)cc3c(C(C)C)c(O)c(O)c(C#N)c3c2OC(=O)CC)c(C)cc2c(C(C)C)c(O)c(O)c(C#N)c12 | 69 | 46 | 1100
